Some test systems named below: BT-549 breast; IGROV1 ovarian; HS 578T breast; HCC-2998 colon; COLO 205 colon; K-562 leukemia; A549 NSCLC; HCT-116 colon; NCI-H522 lung; OVCAR-5 ovarian.
Holding throughout (assay): NCI-60 cell line screen, 48 h

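Tested at 5 concentrations; 48 h exposure; 96-well plates; endpoints linearly interpolated, else capped at highest concentration. TGI: concentration producing complete growth inhibition.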 *1 amine or outer side, *2 acyl side, *3 side chain or, on linkers, in order; H or OH if unused. Where a SMILES comes first, the peptide text is derived from it. Bridges are numbered along the chain shown (N, C = ends). [ ]: non-standard residue; d: D form. The star is where a group is joined. ξ: configuration not given here. X34 = O=C(C(CCCCNO[*:3])N[*:1])[*:2]; Fmoc = O=C(OCC1c2ccccc2-c2ccccc21)*; ξW = NC(Cc1c[nH]c2ccccc12)C(=O)O; ξP = O=C(O)C1CCCN1

As for `O=C(O)CN(CCNC(=O)OCC1c2ccccc2-c2ccccc21)CCNC(=O)OCC1c2ccccc2-c2ccccc21`, the TGI with BT-549 breast is 67.4 µM; in the assay with IGROV1 ovarian, 45.7 µM; with HS 578T breast, above 100 µM; in the assay on HCC-2998 colon it was 51.3 µM; with COLO 205 colon, 40.7 µM; in the assay on K-562 leukemia it was 39.9 µM. Further, the TGI in the assay with A549 NSCLC was 49.1 µM; in the assay on HCT-116 colon, 31.9 µM; in the assay on NCI-H522 lung it was 32.3 µM; with OVCAR-5 ovarian, 96.3 µM.

With `NC(=O)CNC(=O)C1CCCN1C(=O)C1CCCCNOC(=O)CC[C@@H](NC(=O)OCC2c3ccccc3-c3ccccc32)C(=O)NC(Cc2c[nH]c3ccccc23)C(=O)N1` (stereo not given in full) (Fmoc-[dE][ξW][X34][ξP]G-NH2; ester 1-3), the TGI in the assay on BT-549 breast, in the assay on IGROV1 ovarian, with HS 578T breast, in the assay with HCC-2998 colon, in the assay on COLO 205 colon and in the assay on K-562 leukemia was above 100 µM in each case. Moreover, the TGI in the assay with A549 NSCLC, in the assay with HCT-116 colon, with NCI-H522 lung and with OVCAR-5 ovarian was above 100 µM in each case.

As for `Cc1nnc2n1N=C(c1cc(F)c(Cl)cc1Cl)/C(=C/c1ccc(Cl)cc1)S2`, the TGI was 49 µM in the assay on BT-549 breast; 53.9 µM in the assay with IGROV1 ovarian; above 100 µM in the assay with HS 578T breast; 28.5 µM in the assay on HCC-2998 colon; above 100 µM with COLO 205 colon; above 100 µM in the assay on K-562 leukemia. The TGI was 99.6 µM in the assay with A549 NSCLC, 21 µM with HCT-116 colon, above 100 µM with NCI-H522 lung and 28 µM with OVCAR-5 ovarian.

For the molecule `CC(C)c1ccc2[nH]c(O)c(-c3[nH]c4ccccc4c3N=O)c2c1`, the TGI with BT-549 breast was found to be 19.4 µM; with IGROV1 ovarian, 21.2 µM; in the assay on HS 578T breast, 17.7 µM; in the assay on HCC-2998 colon, 16.1 µM; in the assay with COLO 205 colon, 18.1 µM; in the assay with K-562 leukemia it was 17.8 µM. For the same molecule, the TGI turned out to be 22.2 µM in the assay on A549 NSCLC, 14 µM with HCT-116 colon, 14.6 µM in the assay with NCI-H522 lung and 30.5 µM with OVCAR-5 ovarian.

On to `COc1ccc(-c2cc(-c3ccco3)c(C#N)c(=S)n2C2OC(COC(C)=O)C(OC(C)=O)C(OC(C)=O)C2OC(C)=O)cc1` (stereo not given), for which the TGI in the assay with BT-549 breast is 8.23 µM; with IGROV1 ovarian, 29.5 µM; in the assay with HS 578T breast, 21.1 µM; in the assay with HCC-2998 colon it was 48.4 µM; in the assay with COLO 205 colon, 16.2 µM; in the assay with K-562 leukemia it was above 100 µM. Besides, the TGI amounted to 24.5 µM in the assay on A549 NSCLC, 22.8 µM in the assay on HCT-116 colon, 18 µM in the assay with NCI-H522 lung and 30.9 µM in the assay on OVCAR-5 ovarian.

Regarding `COc1cc(/C=C2/C(=O)N(C(=O)c3ccccc3O)N=C2C)cc(OC)c1OC`, the TGI with BT-549 breast was above 100 µM; in the assay on IGROV1 ovarian it was 4.71 µM; in the assay with HS 578T breast it was above 100 µM; with HCC-2998 colon, above 87.8 µM; in the assay on COLO 205 colon, above 100 µM; in the assay on K-562 leukemia it was above 100 µM. The TGI with A549 NSCLC was above 100 µM; with HCT-116 colon, above 29 µM; in the assay with NCI-H522 lung, 33.4 µM; with OVCAR-5 ovarian it was above 100 µM.

As for `CCCCCCCCCCCCCCCCCCNc1ccn(C2OC(COP(=O)(O)OCC3OC(n4ccc(NC(=O)CCCCCCCCCCCCCCCCC)nc4=O)C(OC(C)=O)C3OC(C)=O)C(OC(C)=O)C2OC(C)=O)c(=O)n1` (stereo not given), the TGI in the assay on BT-549 breast, with IGROV1 ovarian, with HS 578T breast, in the assay on HCC-2998 colon, in the assay with COLO 205 colon and in the assay with K-562 leukemia was above 100 µM each time. Moreover, the TGI with A549 NSCLC, with HCT-116 colon, in the assay with NCI-H522 lung and with OVCAR-5 ovarian was above 100 µM throughout.

As for `COc1cccc(-c2cc(=O)c3ccccc3o2)c1N`, the TGI in the assay on BT-549 breast, in the assay on IGROV1 ovarian, with HS 578T breast, with HCC-2998 colon, with COLO 205 colon and in the assay with K-562 leukemia was above 100 µM in each case. Also, the TGI with A549 NSCLC, in the assay on HCT-116 colon, in the assay with NCI-H522 lung and in the assay with OVCAR-5 ovarian was above 100 µM throughout.

On to `Cc1nc2c(sc(=S)n2-c2ccccc2)c2nc3ncccc3n12`, for which the TGI with BT-549 breast, in the assay on IGROV1 ovarian, in the assay with HS 578T breast, with HCC-2998 colon, in the assay on COLO 205 colon and with K-562 leukemia was above 100 µM each time. The TGI in the assay with A549 NSCLC, with HCT-116 colon, in the assay on NCI-H522 lung and in the assay on OVCAR-5 ovarian was above 100 µM each time.

As to `COc1ccc(N2C(=O)C3c4[nH]c5ccc(OCc6ccccc6)cc5c4C4CCC(C(C)(C)C)CC4C3C2=O)cc1` (stereo not given), the TGI with BT-549 breast, in the assay on IGROV1 ovarian, in the assay on HS 578T breast, with HCC-2998 colon, with COLO 205 colon and with K-562 leukemia was above 100 µM throughout. In addition, the TGI in the assay with A549 NSCLC, in the assay on HCT-116 colon, with NCI-H522 lung and in the assay on OVCAR-5 ovarian was above 100 µM throughout.

With `COc1cc(O)c(/C=N/N=C(\N)NO)c(OC)c1`, the TGI in the assay with BT-549 breast, in the assay on IGROV1 ovarian, in the assay on HS 578T breast, in the assay with HCC-2998 colon, in the assay with COLO 205 colon and in the assay on K-562 leukemia was above 10 µM in each case. In addition, the TGI in the assay on A549 NSCLC, in the assay on HCT-116 colon, with NCI-H522 lung and in the assay with OVCAR-5 ovarian was above 10 µM throughout.

These data come from PubChem BioAssay (NCI).
